Reference: US9573957B2 (Boehringer Ingelheim International GmbH, priority 2013, dated 2017)

Legend:
[1] = tested on: synthesis of LTB4 in human whole blood; experiment: LTB4 production inhibition assay in human whole blood (HWB); type: cell-based; conditions: heparinized human whole blood, 15 min at 37° C., Calcimycin 20 μM 30 min, plasma LTB4 by HTRF
How it was run: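 Heparinized human whole blood preincubated with compound 15 min at 37° C, then stimulated with calcimycin (20 μM final) for 30 min at 37° C. Plasma separated by centrifugation; LTB4 measured by antibody-based homogeneous time-resolved fluorescence.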

human LTA4 hydrolase = human LTA4 hydrolase (Homo sapiens (Human), UniProt P09960); experiment: LTA4H Enzyme assay (peptidase, Arg-AMC cleavage); type: biochemical; conditions: LTA4H Enzyme 1 nM, Arg-AMC substrate 50 μM, room temperature 1 h, fluorescence
Sequence of human LTA4 hydrolase (P09960 whole entry): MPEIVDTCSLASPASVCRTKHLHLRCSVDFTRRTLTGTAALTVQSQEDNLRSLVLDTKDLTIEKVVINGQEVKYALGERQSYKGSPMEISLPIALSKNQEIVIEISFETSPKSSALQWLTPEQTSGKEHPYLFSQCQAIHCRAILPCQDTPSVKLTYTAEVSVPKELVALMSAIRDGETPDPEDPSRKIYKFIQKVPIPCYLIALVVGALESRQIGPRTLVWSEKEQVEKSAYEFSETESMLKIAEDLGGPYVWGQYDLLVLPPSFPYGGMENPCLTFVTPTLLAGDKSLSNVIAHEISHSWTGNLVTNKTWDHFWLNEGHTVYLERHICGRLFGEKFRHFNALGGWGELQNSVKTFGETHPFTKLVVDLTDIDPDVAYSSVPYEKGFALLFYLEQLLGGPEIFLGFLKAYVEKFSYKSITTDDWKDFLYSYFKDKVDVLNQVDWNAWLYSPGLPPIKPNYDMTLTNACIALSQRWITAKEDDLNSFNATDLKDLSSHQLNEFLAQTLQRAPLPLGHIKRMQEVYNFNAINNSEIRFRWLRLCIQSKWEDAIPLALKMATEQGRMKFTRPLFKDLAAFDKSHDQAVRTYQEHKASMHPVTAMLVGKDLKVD
How it was run: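 Peptidase activity of human LTA4H (1 nM final) on Arg-AMC (50 μM final), with compound, 1 h at room temperature. Buffer: 50 mM Tris-HCl pH 7.5, 100 mM KCl, 0.5% BSA.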

SMILES | IC50 [1] [nM] | IC50 (human LTA4 hydrolase) [nM]
CCS(=O)(=O)N1CCN(Cc2ccc3cc(Oc4ccc(-c5ccn[nH]5)cn4)ccc3n2)CC1 [Example 67, 2-(4-Ethanesulfonyl-piperazin-1-ylmethyl)-6-[5-(2H-pyrazol-3-yl)-pyridin-2-yloxy]-quinoline] | 550 | 2.9
CC(C)(O)C(=O)N1CC2CCC(C1)N2Cc1ccc2cc(Oc3ccc(-c4ccn[nH]4)cn3)ccc2n1 [Example 58, 2-Hydroxy-2-methyl-1-(8-{6-[5-(2H-pyrazol-3-yl)-pyridin-2-yloxy]-quinolin-2-ylmethyl}-3,8-diaza-bicyclo[3.2.1]oct-3-yl)-propan-1-one] | 120 | 0.45
COCC(=O)N1CCN(Cc2ccc3cc(Oc4ncc(-c5ccn[nH]5)cn4)ccc3c2)CC1 [Example 24, 2-Methoxy-1-(4-{6-[5-(2H-pyrazol-3-yl)-pyrimidin-2-yloxy]-naphthalen-2-ylmethyl}-piperazin-1-yl)-ethanone] | 290 | 2
O[C@@H]1CCN(Cc2ccc3cc(Oc4ncc(-c5ccn[nH]5)cn4)ccc3c2)C1 [Example 45, (R)-1-{6-[5-(2H-Pyrazol-3-yl)-pyrimidin-2-yloxy]-naphthalen-2-ylmethyl}-pyrrolidin-3-ol] | 310 | 2.4
CC(C)(C#N)C(=O)N1CC2CCC(C1)N2Cc1ccc2cc(Oc3ccc(-c4ccn[nH]4)cn3)ccc2n1 [Example 51, 2,2-Dimethyl-3-oxo-3-(8-{6-[5-(2H-pyrazol-3-yl)-pyridin-2-yloxy]-quinolin-2-ylmethyl}-3,8-diaza-bicyclo[3.2.1]oct-3-yl)-propionitrile] | 210 | 0.73
C[C@H](O)C(=O)N1CCN(CCC2COc3cc(Oc4ccc(-c5ccn[nH]5)cn4)ccc32)CC1 (stereo partly drawn) [Example 84, (S)-2-Hydroxy-1-[4-(2-{6-[5-(2H-pyrazol-3-yl)-pyridin-2-yloxy]-2,3-dihydro-benzofuran-3-yl}-ethyl)-piperazin-1-yl]-propan-1-one] | 450 | 1.3
OC1CN(Cc2ccc3cc(Oc4ccc(-c5ccn[nH]5)cn4)ccc3c2)C1 [Example 1, 1-{6-[5-(2H-Pyrazol-3-yl)-pyridin-2-yloxy]-naphthalen-2-ylmethyl}-azetidin-3-ol] | 140 | 0.43
CO[C@H](C)C(=O)N1CCN(Cc2cn3cc(Oc4ccc(-c5ccn[nH]5)cc4)ccc3n2)CC1 [Example 80, (R)-2-Methoxy-1-(4-{6-[4-(2H-pyrazol-3-yl)-phenoxy]-imidazo[1,2-a]pyridin-2-ylmethyl}-piperazin-1-yl)-propan-1-one] | 200 | 0.85
CC(=O)N1CC(CN(C)Cc2ccc3cc(Oc4ncc(-c5ccn[nH]5)cn4)ccc3c2)C1 [Example 32, 1-{3-[(Methyl-{6-[5-(2H-pyrazol-3-yl)-pyrimidin-2-yloxy]-naphthalen-2-ylmethyl}-amino)-methyl]-azetidin-1-yl}-ethanone] | 180 | 1.1
OCC1CCN(Cc2ccc3cc(Oc4ccc(-c5ccn[nH]5)cn4)ccc3c2)CC1 [Example 17, (1-{6-[5-(2H-Pyrazol-3-yl)-pyridin-2-yloxy]-naphthalen-2-ylmethyl}-piperidin-4-yl)-methanol] | 160 | 0.75
CC[C@H](CC#N)NCc1ccc2cc(Oc3ccc(-c4ccn[nH]4)cn3)ccc2n1 [Example 44, (R)-3-({6-[5-(2H-Pyrazol-3-yl)-pyridin-2-yloxy]-quinolin-2-ylmethyl}-amino)-pentanenitrile] | 870 | 2.7
C[C@H](O)C(=O)N1CCN(CCc2coc3cc(Oc4ccc(-c5ccn[nH]5)cn4)ccc23)CC1 [Example 83, (S)-2-Hydroxy-1-[4-(2-{6-[5-(2H-pyrazol-3-yl)-pyridin-2-yloxy]-benzofuran-3-yl}-ethyl)-piperazin-1-yl]-propan-1-one] | 240 | 0.86
O=C(CO)N1CCN(Cc2ccc3cc(Oc4ccc(-c5ccn[nH]5)cn4)ccc3c2)CC1 [Example 7, 2-Hydroxy-1-(4-{6-[5-(2H-pyrazol-3-yl)-pyridin-2-yloxy]-naphthalen-2-ylmethyl}-piperazin-1-yl)-ethanone] | 120 | 0.4
O=C1[C@@H](O)CCN1C1CCN(Cc2ccc3cc(Oc4ncc(-c5ccn[nH]5)cn4)ccc3c2)CC1 [Example 29, (S)-3-Hydroxy-1-(1-{6-[5-(2H-pyrazol-3-yl)-pyrimidin-2-yloxy]-naphthalen-2-ylmethyl}-piperidin-4-yl)-pyrrolidin-2-one] | 220 | 1.8
O[C@@H]1CCN(Cc2ccc3cc(Oc4ccc(-c5ccn[nH]5)cn4)ccc3c2)C1 [Example 6, (R)-1-{6-[5-(2H-Pyrazol-3-yl)-pyridin-2-yloxy]-naphthalen-2-ylmethyl}-pyrrolidin-3-ol] | 130 | 0.57
O=C1[C@@H](O)CCN1C1CCN(C[C@@H]2Cc3ccc(Oc4ccc(-c5ccn[nH]5)cn4)cc3O2)CC1 [Example 61, (S)-3-Hydroxy-1-(1-{(S)-6-[5-(2H-pyrazol-3-yl)-pyridin-2-yloxy]-2,3-dihydro-benzofuran-2-ylmethyl}-piperidin-4-yl)-pyrrolidin-2-one] | 220 | 1.2
OC1CN(Cc2ccc3cc(Oc4ccc(-c5ccn[nH]5)cn4)ccc3n2)C1 [Example 42, 1-{6-[5-(2H-Pyrazol-3-yl)-pyridin-2-yloxy]-quinolin-2-ylmethyl}-azetidin-3-ol] | 190 | 0.92
OC[C@H]1CCN(Cc2ccc3cc(Oc4ccc(-c5ccn[nH]5)cn4)ccc3c2)C1 [Example 18, ((S)-1-{6-[5-(2H-Pyrazol-3-yl)-pyridin-2-yloxy]-naphthalen-2-ylmethyl}-pyrrolidin-3-yl)-methanol] | 160 | 0.76

Continued, values first:

IC50 [1] [nM] | IC50 (human LTA4 hydrolase) [nM] | SMILES
210 | 0.7 | CC(=O)N1CCC(CNCc2coc3cc(Oc4ccc(-c5ccn[nH]5)cn4)ccc23)CC1 [Example 107, 1-{4-[({6-[5-(2H-Pyrazol-3-yl)-pyridin-2-yloxy]-benzofuran-3-ylmethyl}-amino)-methyl]-piperidin-1-yl}-ethanone]
180 | 0.86 | C[C@H](O)C(=O)N1CCN(Cc2ccc3cc(Oc4ccc(-c5ccn[nH]5)cn4)ccc3n2)CC1 [Example 129, (S)-2-Hydroxy-1-(4-{6-[5-(2H-pyrazol-3-yl)-pyridin-2-yloxy]-quinolin-2-ylmethyl}-piperazin-1-yl)-propan-1-one]
240 | 0.56 | COC(C)(C)C(=O)N1CCN(Cc2ccc3cc(Oc4ccc(-c5ccn[nH]5)cn4)ccc3n2)CC1 [Example 128, 2-Methoxy-2-methyl-1-(4-{6-[5-(2H-pyrazol-3-yl)-pyridin-2-yloxy]-quinolin-2-ylmethyl}-piperazin-1-yl)-propan-1-one]
990 | 1.2 | O=C(N1CCN(Cc2cn3cc(Oc4ccc(-c5ccn[nH]5)cc4)ccc3n2)CC1)C1(O)CC1 [Example 96, (1-Hydroxy-cyclopropyl)-(4-{6-[4-(2H-pyrazol-3-yl)-phenoxy]-imidazo[1,2-a]pyridin-2-ylmethyl}-piperazin-1-yl)-methanone]
340 | 1.7 | O=C(N1CCN(Cc2ccc3cc(Oc4ccc(-c5ccn[nH]5)cn4)ccc3n2)CC1)C1(CO)CC1 [Example 138, (1-Hydroxymethyl-cyclopropyl)-(4-{6-[5-(2H-pyrazol-3-yl)-pyridin-2-yloxy]-quinolin-2-ylmethyl}-piperazin-1-yl)-methanone]
130 | 0.22 | CN1CCC2(CCN(Cc3coc4cc(Oc5ccc(-c6ccn[nH]6)cn5)ccc34)CC2)C1=O [Example 110, 2-Methyl-8-{6-[5-(2H-pyrazol-3-yl)-pyridin-2-yloxy]-benzofuran-3-ylmethyl}-2,8-diaza-spiro[4.5]decan-1-one]
150 | 0.56 | CN(C(=O)CO)[C@H]1CCN(Cc2coc3cc(Oc4ccc(-c5ccn[nH]5)cn4)ccc23)C1 [Example 114, 2-Hydroxy-N-methyl-N-((S)-1-{6-[5-(2H-pyrazol-3-yl)-pyridin-2-yloxy]-benzofuran-3-ylmethyl}-pyrrolidin-3-yl)-acetamide]
1100 | 7.9 | N#CC1(C(=O)N2CCN(Cc3ccc4cc(Oc5ccc(-c6ccn[nH]6)cn5)ccc4n3)CC2)CCOCC1 [Example 148, 4-(4-{6-[5-(2H-Pyrazol-3-yl)-pyridin-2-yloxy]-quinolin-2-ylmethyl}-piperazine-1-carbonyl)-tetrahydro-pyran-4-carbonitrile]
180 | 0.71 | CC(=O)N1CCC(NCc2coc3cc(Oc4ccc(-c5ccn[nH]5)cn4)ccc23)CC1 [Example 108, 1-[4-({6-[5-(2H-Pyrazol-3-yl)-pyridin-2-yloxy]-benzofuran-3-ylmethyl}-amino)-piperidin-1-yl]-ethanone]
260 | 1 | C[C@H](O)C(=O)N1CCN(Cc2cn3cc(Oc4ccc(-c5ccn[nH]5)cc4)ccc3n2)CC1 [Example 87, (S)-2-Hydroxy-1-(4-{6-[4-(2H-pyrazol-3-yl)-phenoxy]-imidazo[1,2-a]pyridin-2-ylmethyl}-piperazin-1-yl)-propan-1-one]
320 | 2.9 | O=C([C@H]1CCCO1)N1CCN(Cc2ccc3cc(Oc4ccc(-c5ccn[nH]5)cn4)ccc3n2)CC1 [Example 133, (4-{6-[5-(2H-Pyrazol-3-yl)-pyridin-2-yloxy]-quinolin-2-ylmethyl}-piperazin-1-yl)-(R)-tetrahydro-furan-2-yl-methanone]
930 | 2.2 | C[C@@H](O)C(=O)N1CCN(CCC2COc3cc(Oc4ccc(-c5ccn[nH]5)cn4)ccc32)CC1 (stereo partly drawn) [Example 91, (R)-2-Hydroxy-1-[4-(2-{6-[5-(2H-pyrazol-3-yl)-pyridin-2-yloxy]-2,3-dihydro-benzofuran-3-yl}-ethyl)-piperazin-1-yl]-propan-1-one]
